Among the data in ChEMBL document CHEMBL1130084, “Further definition of the D1 dopamine receptor pharmacophore: synthesis of trans-6,6a,7,8,9,13b-hexahydro-5H-benzo[d]naphth[2,1-b]azepines as rigid analogues of beta-phenyldopamine” (J Med Chem, 1997) are K0.5 values, retold here.

Experiment [1] concerns the target D(1A) dopamine receptor (Rattus norvegicus) (UniProt P18901). Briefly: The compound is evaluated for the affinity towards Dopamine receptor D1, using [3H]- SCH 23390 as ligand on rat striatal membranes.
For experiment [2], the target named is D(2) dopamine receptor (Rattus norvegicus) (UniProt P61169). The experiment in a line: The compound is evaluated for the affinity towards Dopamine receptor D2, using [3H]-spiperone as ligand on rat striatal membranes.
Chain of D(2) dopamine receptor (Rattus norvegicus) (P61169 whole entry): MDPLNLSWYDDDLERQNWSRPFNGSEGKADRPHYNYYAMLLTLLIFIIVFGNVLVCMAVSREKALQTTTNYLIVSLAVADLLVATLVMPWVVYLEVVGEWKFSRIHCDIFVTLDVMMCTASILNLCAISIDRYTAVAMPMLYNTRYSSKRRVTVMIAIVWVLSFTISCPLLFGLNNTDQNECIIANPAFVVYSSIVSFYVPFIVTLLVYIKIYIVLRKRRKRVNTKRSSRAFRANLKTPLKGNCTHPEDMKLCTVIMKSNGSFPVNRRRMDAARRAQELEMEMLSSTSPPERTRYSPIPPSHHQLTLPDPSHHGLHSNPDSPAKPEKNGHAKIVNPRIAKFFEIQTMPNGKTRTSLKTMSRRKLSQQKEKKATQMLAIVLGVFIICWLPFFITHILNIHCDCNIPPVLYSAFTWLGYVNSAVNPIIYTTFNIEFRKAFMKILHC

Chain of D(1A) dopamine receptor (Rattus norvegicus) (P18901 whole entry): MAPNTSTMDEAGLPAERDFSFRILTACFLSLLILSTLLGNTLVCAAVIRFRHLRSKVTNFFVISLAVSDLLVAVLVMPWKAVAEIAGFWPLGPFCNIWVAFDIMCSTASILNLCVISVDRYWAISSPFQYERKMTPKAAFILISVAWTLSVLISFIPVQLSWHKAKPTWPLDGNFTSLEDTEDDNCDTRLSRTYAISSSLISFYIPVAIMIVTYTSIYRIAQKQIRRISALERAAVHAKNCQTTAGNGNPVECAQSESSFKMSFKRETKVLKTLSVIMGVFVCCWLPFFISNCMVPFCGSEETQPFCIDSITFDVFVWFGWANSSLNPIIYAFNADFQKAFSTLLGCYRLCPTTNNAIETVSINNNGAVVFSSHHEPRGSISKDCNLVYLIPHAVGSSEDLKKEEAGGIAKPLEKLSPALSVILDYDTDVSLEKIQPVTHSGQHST

In experiment [1], `Oc1cc2c(cc1O)[C@H]1c3ccccc3CN[C@@H]1CC2` returned a K0.5 of 2.8 nM.
In the case of `CN1CCc2ccccc2[C@@H]2c3cc(O)c(I)cc3CC[C@H]21`, the K0.5 was determined as 1380 nM in experiment [1] and 2960 nM in experiment [2].
As for `CN1CCc2ccccc2[C@@H]2c3cc(O)ccc3CC[C@H]21`, the figures for the K0.5 in experiment [1] and in experiment [2] were 3950 nM and more than 10000 nM, respectively.
`CN1Cc2ccccc2[C@@H]2c3cc(O)c(Br)cc3CC[C@H]21` gave a K0.5 in experiment [1] of 322 nM.
On to `Oc1cc2c(cc1O)[C@H]1c3ccccc3CCN[C@@H]1CC2`, for which the values for the K0.5 in experiment [1] and in experiment [2] were 2850 nM and 2220 nM, respectively.
